Reference: patent publication US4061607A, “Somatostatin analogs and intermediates thereto” (Eli Lilly and Company, priority 1976, dated 1977)
Positions of bridges follow the written chain, without caps; N, C: chain ends. Non-standard residues stand in square brackets, D forms with d. Residues, ends and D or L forms follow the SMILES beside them. Cha = N[C@@H](CC1CCCCC1)C(=O)O

Legend:
insulin secretion = experiment: in vivo inhibition of insulin secretion upon stimulation with L-alanine; parameters: species or system mongrel dogs; settings: for effect on the increase in serum insulin concentration produced by infusion of L-alanine / effect on basal serum insulin concentration: dogs, intravenous infusion; for effect on the increase in serum insulin concentration produced by infusion of L-alanine: D-Phe11 0.211, L-Cha11 0.235, L-Leu11 0.195 μg/kg/min., L-alanine 1 mmol/kg; for effect on basal serum insulin concentration: L-Cha11 0.235, L-Leu11 0.195 μg/kg/min., somatostatin about 0.20-0.30 μg/kg./minute
Method: (§1) The tetradecapeptides were tested for their in vivo activity in inhibiting glucagon and insulin secretion upon stimulation with L-alanine. Normal mongrel dogs of either sex were fasted overnight. Control blood samples were obtained, and then an intravenous infusion of saline, somatostatin, or test compound was started. After 30 minutes, L-alanine additionally was administered intravenously for a period of 15 minutes. The infusion of saline, somatostatin, or test compound was continued for 15 minutes after completion of the alanine infusion. The total dose of somatostatin or test compound which was infused is 200-500 μg/dog (about 0.20-0.30 μg/kg./minute), and the total dose of L-alanine infused was 1 mmol/kg. The infusion of L-alanine produced an abrupt increase in the serum concentration of glucagon and insulin. This returned to control concentration when the alanine infusion was discontinued.

glucagon secretion [1] = experiment: in vivo inhibition of glucagon secretion upon stimulation with insulin; parameters: species or system mongrel dogs; settings: dogs, intravenous infusion for two hours; D-Phe11 0.128, L-Cha11 0.130, L-Leu11 0.129 μg/kg/min.; insulin 0.3 units/kg.
Method: The tetradecapeptides also were evaluated for in vivo activity in inhibiting glucagon secretion upon stimulation with insulin. Normal mongrel dogs of either sex were fasted overnight. After control blood samples had been obtained, an intravenous infusion of saline, somatostatin, or the test compound was commenced. After 15 minutes, insulin, 0.3 units/kg., was injected intravenously. The infusion of saline, somatostatin, or the test compound was continued for two hours, and blood samples were obtained at various intervals throughout the test. The total dose of the somatostatin or test compound ranged from 120-260 μg./dog (0.07-0.13 μg/kg/min.). Administration of insulin produced a reduction in the blood glucose concentration and an increase in serum glucagon concentration.

[2] = test system: release of growth hormone; experiment: release of growth hormone in pentobarbital-stimulated rats; assay type: in vivo, Spraque-Dawley rats; settings: 50 μg./rat subcutaneously, sodium pentobarbital stimulated, somatostatin comparator run in each set
Method: D-Phe^11 -somatostatin, L-Cha^11 -somatostatin, and L-Leu^11 -somatostatin also were tested for their activity with respect to the release of growth hormone. The procedure which was employed is carried out using mature male Spraque-Dawley rats (Laboratory Supply Company, Indianapolis, Indiana). The test is a modification of the method of P. Brazeau, W. Vale, and R. Guilleman, Endocrinology, 94 184 (1974). In each assay, a set comprising three groups of eight rats each was employed. First, sodium pentobarbital was administered to all of the rats of the particular set to stimulate growth hormone secretion. In each set, one group served as control group and received only saline. A second group received somatostatin at 50 μg./rat, subcutaneously. The third group received test compound at 50 μg./rat, subcutaneously. The degree of inhibition of serum growth hormone concentration then was determined with respect to the control group, and the relative activities of test compound and somatostatin itself were compared.

glucagon secretion [3] = experiment: in vivo inhibition of glucagon secretion upon stimulation with L-alanine; parameters: species or system mongrel dogs; settings: dogs, intravenous infusion; for effect on the increase in serum glucagon concentration produced by infusion of L-alanine: D-Phe11 0.211, L-Cha11 0.235, L-Leu11 0.195 μg/kg/min., L-alanine 1 mmol/kg; for effect on basal serum glucagon concentration: L-Cha11 0.235, L-Leu11 0.195 μg/kg/min.
Method: as §1

gastric HCl secretion = experiment: in vivo inhibition of gastric acid secretion in dogs with chronic fistula and Heidenhain pouch; settings: for effect equivalent to that dose of somatostatin: extrapolated against the dose-response curve of somatostatin, test compound 3 μg/kg-hr.; for activity relative to that of somatostatin: gastric acid secretion in dogs, relative potency expressed as percent activity
Method: D-Phe^11 -somatostatin and L-Cha^11 -somatostatin also were tested in dogs for their in vivo inhibition of gastric acid secretion. In six dogs with chronic fistula and Heidenhain pouch, gastric HCl secretion was induced by infusion of the C-terminal tetrapeptide of gastrin at 0.5 μg/kg-hr. One dog served as control, receiving only the tetrapeptide. Another dog received the tetrapeptide and somatostatin while the test compound was administered to the remaining dogs in place of somatostatin. After one hour of steady state secretion of HCl, somatostatin or the test compound was infused at 3 μg/kg-hr. for one hour. Collection of gastric acid samples was continued for an additional 1.5 hours at 15 minute intervals. The samples were titrated to pH 7 with an automatic titrator. The maximal inhibitory effect of the test compounds was extrapolated against the dose-response curve of somatostatin, and the relative potency of the analogs to that of somatostatin is expressed as percent activity. […] This effect is equivalent to that of 0.086 μg/kg-hr. of somatostatin. Its activity relative to that of somatostatin thus is 2.87%. […] This effect is equivalent to that of 0.0825 μg/kg-hr. of somatostatin. Its activity relative to that of somatostatin therefore is 2.7%.

Compound | effect on the increase in serum insulin concentration produced by infusion of L-alanine (insulin secretion) | effect on basal serum insulin concentration (insulin secretion) | inhibitory effect upon the pancreatic secretion of insulin (insulin secretion; general statement) | effect on the increase in serum glucagon concentration produced by insulin administration (glucagon secretion [1]) | inhibition of the increase in serum growth hormone concentration over control [2] | effect on the increase in serum glucagon concentration produced by infusion of L-alanine (glucagon secretion [3]) | effect on basal serum glucagon concentration (glucagon secretion [3]) | effect equivalent to that dose of somatostatin (gastric HCl secretion) | activity relative to that of somatostatin (gastric HCl secretion)
CC(C)C[C@@H]1NC(=O)[C@H]([C@@H](C)O)NC(=O)[C@H](CCCCN)NC(=O)[C@H](Cc2c[nH]c3ccccc23)NC(=O)[C@H](Cc2ccccc2)NC(=O)[C@H](Cc2ccccc2)NC(=O)[C@H](CC(N)=O)NC(=O)[C@H](CCCCN)NC(=O)[C@@H](NC(=O)CNC(=O)[C@H](C)N)CSSC[C@@H](C(=O)O)NC(=O)[C@H](CO)NC(=O)[C@H]([C@@H](C)O)NC1=O [L-Leu^11 -somatostatin] (H-AGCKNFFWKTLTSC-OH; disulfide 3-14) | caused only a partial inhibition of the increase in insulin secretion | had no affect on the basal serum concentration of either insulin or glucagon | exhibits an inhibitory effect upon the pancreatic secretion of insulin | none of these compounds inhibited the increase in serum glucagon concentration | 22% | had no effect on the increase in glucagon concentration produced by L-alanine | had no affect on the basal serum concentration of either insulin or glucagon |  | 
C[C@H](N)C(=O)NCC(=O)N[C@H]1CSSC[C@@H](C(=O)O)NC(=O)[C@H](CO)NC(=O)[C@H]([C@@H](C)O)NC(=O)[C@H](CC2CCCCC2)NC(=O)[C@H]([C@@H](C)O)NC(=O)[C@H](CCCCN)NC(=O)[C@H](Cc2c[nH]c3ccccc23)NC(=O)[C@H](Cc2ccccc2)NC(=O)[C@H](Cc2ccccc2)NC(=O)[C@H](CC(N)=O)NC(=O)[C@H](CCCCN)NC1=O [L-Cha^11 -somatostatin] (H-AGCKNFFWKT[Cha]TSC-OH; disulfide 3-14) | did not inhibit the increase in serum concentration of either hormone | caused a decrease in the basal serum concentration of both insulin and glucagon |  | none of these compounds inhibited the increase in serum glucagon concentration | 33% | did not inhibit the increase in serum concentration of either hormone | caused a decrease in the basal serum concentration of both insulin and glucagon | 0.0825 μg/kg-hr. | 2.7%
C[C@H](N)C(=O)NCC(=O)N[C@H]1CSSC[C@@H](C(=O)O)NC(=O)[C@H](CO)NC(=O)[C@H]([C@@H](C)O)NC(=O)[C@@H](Cc2ccccc2)NC(=O)[C@H]([C@@H](C)O)NC(=O)[C@H](CCCCN)NC(=O)[C@H](Cc2c[nH]c3ccccc23)NC(=O)[C@H](Cc2ccccc2)NC(=O)[C@H](Cc2ccccc2)NC(=O)[C@H](CC(N)=O)NC(=O)[C@H](CCCCN)NC1=O [D-Phe^11 -somatostatin] | did not affect the increase in serum glucagon concentration and serum insulin concentration |  |  | none of these compounds inhibited the increase in serum glucagon concentration | 70% | did not affect the increase in serum glucagon concentration |  | 0.086 μg/kg-hr. | 2.87%
